pIC50: −log10 of the molar value.
Biological target: mouse TRPM3α2 (mTRPM3) ion channel (Mus musculus (Mouse), UniProt J9SQF3)
Assay: TRPM3 ion channel driven Ca2+ uptake, Fluo-4 AM assay, mTRPM3alpha2 overexpressing flip-in HEK293 cells stimulated with pregnenolone sulfate
Format: cell-based
Conditions: for pIC50: PS (50 μM) stimulated; for IC50: PS 50 μM
Outline: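 Flip-in HEK293 cells loaded with Fluo-4 AM were added to plates holding compound plus 50 μM pregnenolone sulfate in Ca2+-containing Krebs buffer. Fluorescence (ex 485/em 535 nm) read directly after cell addition; % inhibition relative to PS-stimulated vehicle and positive-control inhibitor.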

Chain of mouse TRPM3α2 (mTRPM3) ion channel (J9SQF3 other isoform, or with tags, fused parts or gaps): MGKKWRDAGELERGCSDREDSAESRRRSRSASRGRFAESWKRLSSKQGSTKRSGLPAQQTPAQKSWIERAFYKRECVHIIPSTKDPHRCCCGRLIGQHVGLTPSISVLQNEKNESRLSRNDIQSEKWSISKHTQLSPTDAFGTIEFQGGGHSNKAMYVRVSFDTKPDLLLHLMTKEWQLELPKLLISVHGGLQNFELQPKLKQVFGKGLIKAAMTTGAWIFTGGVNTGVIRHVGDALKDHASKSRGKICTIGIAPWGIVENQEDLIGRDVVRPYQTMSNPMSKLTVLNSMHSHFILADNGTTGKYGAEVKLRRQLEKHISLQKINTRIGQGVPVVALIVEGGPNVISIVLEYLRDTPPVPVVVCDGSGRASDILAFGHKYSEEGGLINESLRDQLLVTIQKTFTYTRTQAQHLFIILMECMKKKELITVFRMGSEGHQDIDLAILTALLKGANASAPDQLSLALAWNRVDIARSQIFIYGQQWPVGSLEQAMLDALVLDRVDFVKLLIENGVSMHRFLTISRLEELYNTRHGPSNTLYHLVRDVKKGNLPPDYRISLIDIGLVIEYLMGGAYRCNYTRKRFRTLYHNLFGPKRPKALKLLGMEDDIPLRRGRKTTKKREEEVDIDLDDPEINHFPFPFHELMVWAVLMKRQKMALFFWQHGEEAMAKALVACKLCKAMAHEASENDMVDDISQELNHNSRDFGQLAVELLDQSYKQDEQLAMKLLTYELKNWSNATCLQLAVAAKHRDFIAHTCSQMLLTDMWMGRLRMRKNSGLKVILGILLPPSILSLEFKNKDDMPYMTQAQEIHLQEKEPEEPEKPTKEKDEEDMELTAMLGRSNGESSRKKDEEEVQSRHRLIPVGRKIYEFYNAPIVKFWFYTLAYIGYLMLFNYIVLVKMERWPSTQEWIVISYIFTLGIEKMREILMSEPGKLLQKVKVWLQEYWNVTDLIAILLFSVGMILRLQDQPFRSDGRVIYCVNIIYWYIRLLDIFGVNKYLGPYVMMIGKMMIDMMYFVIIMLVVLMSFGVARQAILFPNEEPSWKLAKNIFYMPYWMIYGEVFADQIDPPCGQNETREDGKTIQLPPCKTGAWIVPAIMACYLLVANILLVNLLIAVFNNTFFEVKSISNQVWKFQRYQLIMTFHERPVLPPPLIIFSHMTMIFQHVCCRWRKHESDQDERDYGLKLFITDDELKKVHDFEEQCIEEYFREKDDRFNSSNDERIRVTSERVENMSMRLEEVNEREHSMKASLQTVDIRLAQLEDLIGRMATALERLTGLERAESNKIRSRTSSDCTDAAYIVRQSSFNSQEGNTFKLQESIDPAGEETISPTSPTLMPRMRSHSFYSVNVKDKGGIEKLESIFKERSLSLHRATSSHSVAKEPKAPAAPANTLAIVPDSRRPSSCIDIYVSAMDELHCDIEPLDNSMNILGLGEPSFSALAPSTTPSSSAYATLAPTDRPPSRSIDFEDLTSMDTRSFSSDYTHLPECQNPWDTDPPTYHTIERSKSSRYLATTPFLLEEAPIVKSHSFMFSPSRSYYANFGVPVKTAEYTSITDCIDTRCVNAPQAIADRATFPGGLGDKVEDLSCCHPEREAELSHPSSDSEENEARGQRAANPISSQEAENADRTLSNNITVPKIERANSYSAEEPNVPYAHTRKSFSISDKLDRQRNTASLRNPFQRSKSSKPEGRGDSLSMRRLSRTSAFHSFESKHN

In the case of `Cc1oc2ccc(OCc3ccnn3C)cc2c1C(=O)NC1(C(N)=O)COC1` [compound 579, N-(3-carbamoyloxetan-3-yl)-2-methyl-5-((1-methyl-1H-pyrazol-5-yl)methoxy)benzofuran-3-carboxamide], the pIC50 (cpds. 500-599) was > 6.00.
In the case of `Cc1oc2ccc(OCc3ccccn3)cc2c1C(=O)N[C@H](C)CO` [compound 493, (R)-N-(1-hydroxypropan-2-yl)-2-methyl-5-(pyridin-2-ylmethoxy)benzofuran-3-carboxamide], the pIC50 (cpds. 400-499) was > 6.00.
In the case of `Cc1oc2ccc(OCc3cccnc3C(F)(F)F)cc2c1C(=O)NC1COCC1O` (single isomer, unassigned) [147-Dia 1-En 2, N-(4-hydroxytetrahydrofuran-3-yl)-2-methyl-5-((2-(trifluoromethyl)pyridin-3-yl)methoxy) -benzofuran-3-carboxamide], the pIC50 (cpd 001-199) was > 6.00.
For `Cc1ncsc1COc1ccc2oc(C)c(C(=O)NC3(C(F)F)CCC3)c2c1` [compound 721, N-(1-(Difluoromethyl)cyclobutyl)-2-methyl-5-((4-methylthiazol-5-yl)methoxy)benzofuran-3-carboxamide], the pIC50 (cpds. 667-751) was > 6.00.
With `Cc1ncsc1C(C)Oc1ccc2oc(C)c(C(=O)NC3(CO)CCOCC3)c2c1` (stereo not drawn) [cpd 623-En 1] the pIC50 (cpds. 608-666) was > 6.00.
`Cc1ncsc1COc1ccc2oc(C3CC3)c(C(=O)N[C@@H](CO)C(N)=O)c2c1` [compound 748, (S)-N-(1-Amino-3-hydroxy-1-oxopropan-2-yl)-2-cyclopropyl-5-((4-methylthiazol-5-yl)methoxy)benzofuran-3-carboxamide] was tested, and the pIC50 (cpds. 667-751) was > 6.00.
For `Cc1oc2ccc(OCc3cccnn3)cc2c1C(=O)NC(C)(CO)CO` [compound 427, N-(1,3-dihydroxy-2-methylpropan-2-yl)-2-methyl-5-(pyridazin-3-ylmethoxy)benzofuran-3-carboxamide], the pIC50 (cpds. 400-499) was > 6.00.
`Cc1ccc(COc2ccc3oc(C(F)F)c(C(=O)N[C@@H](CO)C(N)=O)c3c2)cn1` [compound 743, (S)-N-(1-Amino-3-hydroxy-1-oxopropan-2-yl)-2-(difluoromethyl)-5-((6-methylpyridin-3-yl)methoxy)benzofuran-3-carboxamide] was tested, and the pIC50 (cpds. 667-751) was > 6.00.
`Cc1cncc(COc2ccc3oc(C)c(C(=O)N[C@H]4CCNC4)c3c2)c1` [compound 028, (S)-2-methyl-5-((5-methylpyridin-3-yl)methoxy)-N-(pyrrolidin-3-yl)benzofuran-3-carboxamide] was tested, and the pIC50 (cpd 001-199) was > 6.00.
For `COc1cccc(COc2ccc3oc(C)c(C(=O)NC4CCNCC4(F)F)c3c2)n1` (single isomer, unassigned) [cpd 570-En 2], the pIC50 (cpds. 500-599) was 4.70 to 6.00.
With `Cc1ncsc1COc1ccc2oc(C)c(C(=O)Nc3cn[nH]c3)c2c1` [compound 150, 2-methyl-5-((4-methylthiazol-5-yl)methoxy)-N-(1H-pyrazol-4-yl)benzofuran-3-carboxamide] the pIC50 (cpd 001-199) was > 6.00.
`Cc1oc2ccc(OCc3cccnc3C(F)F)cc2c1C(=O)NC1(C(N)=O)COC1` [compound 584, N-(3-carbamoyloxetan-3-yl)-5-((2-(difluoromethyl)pyridin-3-yl)methoxy)-2-methylbenzofuran-3-carboxamide] was tested, and the pIC50 (cpds. 500-599) was > 6.00.
In the case of `Cc1ncsc1COc1ccc2oc(C)c(C(=O)NC3CCN(CC(F)(F)F)C3)c2c1` (single isomer, unassigned) [116-En 1, 2-methyl-5-((4-methylthiazol-5-yl)methoxy)-N-(1-(2,2,2-trifluoroethyl)pyrrolidin-3-yl)benzofuran-3-carboxamide], the pIC50 (cpd 001-199) was > 6.00.
In the case of `Cc1oc2ccc(OCc3cccnc3N3CCC3)cc2c1C(=O)N[C@@H](CO)C(N)=O` [compound 706, (S)-N-(1-amino-3-hydroxy-1-oxopropan-2-yl)-5-((2-(azetidin-1-yl)pyridin-3-yl)methoxy)-2-methylbenzofuran-3-carboxamide], the pIC50 (cpds. 667-751) was > 6.00.
For `Cc1ncsc1COc1ccc2oc(C)c(C(=O)Nc3cc[nH]n3)c2c1` [compound 144, 2-methyl-5-((4-methylthiazol-5-yl)methoxy)-N-(1H-pyrazol-3-yl)benzofuran-3-carboxamide], the pIC50 (cpd 001-199) was > 6.00.
For `COc1cc(COc2ccc3oc(C)c(C(=O)NC4(CO)CCOCC4)c3c2)ccn1` [compound 629, N-(4-(hydroxymethyl)tetrahydro-2H-pyran-4-yl)-5-((2-methoxypyridin-4-yl)methoxy)-2-methylbenzofuran-3-carboxamide], the pIC50 (cpds. 608-666) was > 6.00.
For `Cc1ncsc1COc1cc2c(C(=O)NC3(CO)CCOCC3)c(C)oc2cc1Cl` [compound 174, 6-chloro-N-(4-(hydroxymethyl)tetrahydro-2H-pyran-4-yl)-2-methyl-5-((4-methylthiazol-5-yl) -methoxy)benzofuran-3-carboxamide], the pIC50 (cpd 001-199) was > 6.00.
`Cc1oc2ccc(OCc3cccnc3O)cc2c1C(=O)NC1COCC1(F)F` (single isomer, unassigned) [cpd 648-En 1] was tested, and the pIC50 (cpds. 608-666) was > 6.00.
For `Cc1ncc(COc2ccc3oc(C)c(C(=O)N[C@@H](CO)C(=O)N(C)C)c3c2)s1` [compound 278, (S)-N-(1-(dimethylamino)-3-hydroxy-1-oxopropan-2-yl)-2-methyl-5-((2-methylthiazol-5-yl)methoxy)benzofuran-3-carboxamide], the IC50 (cpds 200-299) was < 1 µM.
In the case of `Cc1ncsc1COc1ccc2oc(C)c(C(=O)NC(C)(C)CO)c2c1` [compound 104, N-(1-hydroxy-2-methylpropan-2-yl)-2-methyl-5-((4-methylthiazol-5-yl)methoxy)benzofuran-3-carboxamide], the pIC50 (cpd 001-199) was > 6.00.
For `Cc1ncc(COc2ccc3oc(C)c(C(=O)N[C@@H]4C(=O)NC[C@H]4O)c3c2)s1` [compound 391, N-((3S,4R)-4-hydroxy-2-oxopyrrolidin-3-yl)-2-methyl-5-((2-methylthiazol-5-yl)methoxy)benzofuran-3-carboxamide], the IC50 (cpds 300-399) was < 1 µM.
`O=C(NC1CCNCC1(F)F)c1c(C2CC2)oc2ccc(OCc3cccnc3C(F)(F)F)cc12` (single isomer, unassigned) [cpd 313-En 1] was tested, and the IC50 (cpds 300-399) was < 1 µM.
For `Cc1oc2ccc(OCc3cccnc3)cc2c1C(=O)NC(CO)C(N)=O` (stereo not drawn) [compound 662, N-(1-amino-3-hydroxy-1-oxopropan-2-yl)-2-methyl-5-(pyridin-3-ylmethoxy)benzofuran-3-carboxamide], the pIC50 (cpds. 608-666) was > 6.00.
`Cc1oc2ccc(OCc3cccnc3OC3CC3)cc2c1C(=O)N[C@@H](CO)C(N)=O` [compound 710, (S)-N-(1-amino-3-hydroxy-1-oxopropan-2-yl)-5-((2-cyclopropoxypyridin-3-yl)methoxy)-2-methylbenzofuran-3-carboxamide] was tested, and the pIC50 (cpds. 667-751) was > 6.00.
In the case of `Cc1ncsc1COc1ccc2oc(C)c(C(=O)NCC3(F)COC3)c2c1` [compound 385, N-((3-fluorooxetan-3-yl)methyl)-2-methyl-5-((4-methylthiazol-5-yl)methoxy)benzofuran-3-carboxamide], the IC50 (cpds 300-399) was < 1 µM.
For `Cc1ncsc1COc1ccc2oc(C)c(C(=O)N(C)C3(CO)CCOCC3)c2c1` [compound 634, N-(4-(hydroxymethyl)tetrahydro-2H-pyran-4-yl)-N.2-dimethyl-5-((4-methylthiazol-5-yl)methoxy)benzofuran-3-carboxamide], the pIC50 (cpds. 608-666) was > 6.00.
With `Cc1oc2ccc(OCc3cccnc3C(F)(F)F)cc2c1C(=O)NC1(CCO)COC1` [compound 129, N-(3-(2-hydroxyethyl)oxetan-3-yl)-2-methyl-5-((2-(trifluoromethyl)pyridin-3-yl)methoxy) -benzofuran-3-carboxamide] the pIC50 (cpd 001-199) was > 6.00.

Source: patent US12209081B2 (Katholieke Universiteit Leuven, priority 2020, dated 2025)
